Series [1] relates to sodium channel. In words: Guanidine influx assay (14C-guanidine radiotracer flux, in vitro). The series is classed as cell-based, human or rat. The following applies: guanidine influx assay using a known cell line that expresses a sodium channel; activity level class. From the text: This example describes an in vitro assay for testing and profiling test agents against human or rat sodium channels stably expressed in cells of either an endogenous or recombinant origin. The assay is also useful for determining the IC50 of a sodium channel blocking compound. The assay is based on the guanidine flux assay described by Reddy, N. L., et al., J. Med. Chem. (1998), 41(17):3298-302.
The guanidine influx assay is a radiotracer flux assay used to determine ion flux activity of sodium channels in a high-throughput microplate-based format. The assay uses ^14C-guanidine hydrochloride in combination with various known sodium channel modulators, to assay the potency of test agents. Potency is determined by an IC50 calculation. Selectivity is determined by comparing potency of the compound for the channel of interest to its potency against other sodium channels (also called ‘selectivity profiling’).
Each of the test agents is assayed against cells that express the channels of interest. Voltage gated sodium channels are either TTX sensitive or insensitive. This property is useful when evaluating the activities of a channel of interest when it resides in a mixed population with other sodium channels. The following Table 1 summarizes cell lines useful in screening for a certain channel activity in the presence or absence of TTX.
It is also possible to employ recombinant cells expressing these sodium channels. Cloning and propagation of recombinant cells are known to those skilled in the art (see, for example, Klugbauer, N, et al., EMBO J. (1995), 14(6):1084-90; and Lossin, C., et al., Neuron (2002), 34, pp. 877-884).
Cells expressing the channel of interest are grown according to the supplier or in the case of a recombinant cell in the presence of selective growth media such as G418 (Gibco/Invitrogen). The cells are disassociated from the culture dishes with an enzymatic solution (Ix) Trypsin/EDTA (Gibco/Invitrogen) and analyzed for density and viability using haemocytometer (Neubauer). Disassociated cells are washed and resuspended in their culture media then plated into Scintiplates (Beckman Coulter Inc.) (approximately 100,000 cells/well) and incubated at 37° C./5% CO2 for 20-24 hours. After an extensive wash with Low sodium HEPES-buffered saline solution (LNHBSS) (150 mM Choline Chloride, […] (Sigma), 1 mM Calcium Chloride, 5 mM Potassium Chloride, 1 mM Magnesium Chloride, 10 mM Glucose) agents diluted with LNHBSS are added to each well. (Varying concentrations of test agent may be used). The activation/radiolabel mixture contains aconitine (Sigma) to increase the percentage of time that the sodium channels are open, and ^14C-guanidine hydrochloride (ARC) to measure flux through the voltage-gated sodium channels.
After loading the cells with test agent and activation/radiolabel mixture, the Scintiplates are incubated at ambient temperature. Following the incubation, the Scintplates are extensively washed with LNHBSS supplemented with guanidine (Sigma). The Scintiplates are dried and then counted using a Wallac MicroBeta TriLux (Perkin-Elmer Life Sciences). The ability of the test agent to block sodium channel activity is determined by comparing the amount of ^14C-guanidine present inside the cells expressing the different sodium channels.
The IC50 value of a test agent for a specific sodium channel may be determined using the above general method. […] Typically the mid-point concentration of test agent is set at 1 μM, and sequential concentrations of half dilutions greater or smaller are applied (e.g. 0.5 μM; 5 μM and 0.25 μM; 10 μM and 0.125 μM; 20 μM etc.). The IC50 curve is calculated using the 4 Parameter Logistic Model or Sigmoidal Dose-Response Model formula (fit=(A+((B−A)/(1+((C/x)^D)))).
The fold selectivity, factor of selectivity or multiple of selectivity, is calculated by dividing the IC50 value of the test sodium channel by the reference sodium channel, for example, Nav1.5. […]

For series [2], the target named is CYP3A4 (Homo sapiens, UniProt P08684). Kind of series: Cytochrome P450 (CYP450) Inhibition Assay, CYP3A4 (Vivid fluorescence, BOMCC substrate). As to conditions: human, P450 Baculosomes (recombinant CYP3A4), probe BOMCC (Vivid substrate).
CYP3A4, sequence (P08684 whole entry): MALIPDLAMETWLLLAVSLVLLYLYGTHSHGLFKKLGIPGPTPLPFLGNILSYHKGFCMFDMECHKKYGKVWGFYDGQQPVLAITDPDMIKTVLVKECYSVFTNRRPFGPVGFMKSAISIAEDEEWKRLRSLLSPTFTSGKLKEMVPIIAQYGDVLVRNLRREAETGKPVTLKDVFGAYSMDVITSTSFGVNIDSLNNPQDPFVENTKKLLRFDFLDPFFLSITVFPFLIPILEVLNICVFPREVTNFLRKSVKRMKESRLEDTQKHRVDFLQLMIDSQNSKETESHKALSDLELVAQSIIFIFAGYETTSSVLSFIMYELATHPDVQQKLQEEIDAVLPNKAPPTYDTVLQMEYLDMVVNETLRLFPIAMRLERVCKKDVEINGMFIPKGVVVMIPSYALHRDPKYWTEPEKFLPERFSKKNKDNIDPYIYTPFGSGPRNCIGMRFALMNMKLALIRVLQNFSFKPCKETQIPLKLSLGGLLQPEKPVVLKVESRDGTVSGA

One may read the pIC50 as −log10 of the IC50, conventionally taken in molar units. One may read the inhibition as the share of the control response that was lost under treatment.

pIC50: −log10 of the molar value. Where only a bound is given, the exact number is not on record here.

On to `CCn1cncc1CN1C(=O)C2(COc3cc4c(cc32)CCO4)c2ccccc21` (stereo not drawn) [Example 4.21, 1′-[(1-ethyl-1H-imidazol-5-yl)methyl]-5,6-dihydrospiro[benzo[1,2-b:5,4-b′]difuran-3,3′-indol]-2′(1′H)-one], for which the pIC50 in series [1] is 6.00 to 7.00. In addition, in series [2], the inhibition at 10 µM is > 50%.

With `COc1cc2c(cc1C)C1(CO2)C(=O)N(Cc2ccccn2)c2ccccc21` (stereo not drawn) [Example 4.62, 6-methoxy-5-methyl-1′-(pyridin-2-ylmethyl)spiro[1-benzofuran-3,3′-indol]-2′(1′H)-one], the pIC50 in series [1] was 5.00 to 6.00. Further, the inhibition at 10 µM in series [2] is > 50%.

Regarding `O=C1N(Cc2ccc(C(F)(F)F)o2)c2ccccc2C12CCOc1cc3c(cc12)CCO3` (stereo not drawn) [Example 4.70, 1-{[5-(trifluoromethyl)furan-2-yl]methyl}-2,3,6,7-tetrahydrospiro[furo[3,2-g]chromene-5,3′-indol]-2′(1′H)-one], the pIC50 in series [1] was 5.00 to 6.00. Further, the inhibition at 10 µM in series [2] was > 50%.

For `CC(C)(C)OC(=O)NC(CCN1C(=O)C2(COc3cc4c(cc32)OCO4)c2ccccc21)C1CC1` (stereo not drawn) [Example 4.78, tert-butyl [1-cyclopropyl-3-(2′-oxospiro[furo[2,3-f][1,3]benzodioxole-7,3′-indol]-1′(2′H)-yl)propyl]carbamate], the pIC50 in series [1] is 7.00 to 9.00. Moreover, the inhibition at 10 µM in series [2] was > 50%.

As for `O=C1N(Cc2ccc(C(F)(F)F)o2)c2cccc(Cl)c2C12COc1cc3c(cc12)OCO3` (stereo not drawn) [Example 4.90, 4′-chloro-1′-{[5-(trifluoromethyl)-2-furyl]methyl}spiro[furo[2,3-f][1,3]benzodioxole-7,3′-indol]-2′(1′H)-one], the pIC50 in series [1] was 7.00 to 9.00. For the same compound, the inhibition at 10 µM in series [2] was > 50%.

Consider `O=C1N(Cc2ccc(C(F)(F)F)nc2)c2ccccc2C12COc1cc3c(cc12)OCCO3` (stereo not drawn) [Example 4.98, 1-{[6-(trifluoromethyl)pyridin-3-yl]methyl}-2,3-dihydrospiro[furo[2,3-g][1,4]benzodioxine-8,3′-indol]-2′(1′H)-one], for which, in series [1], the pIC50 was 7.00 to 9.00. Also, the inhibition at 10 µM in series [2] was > 50%.

With `CCC(=O)CN1C(=O)[C@@]2(COc3cc4c(cc32)OCCO4)c2ccccc21` [Example 4.109, (S)-1′-(2-oxobutyl)-3,7-dihydro-2H-spiro[benzofuro[5,6-b][1,4]dioxine-8,3′-indolin]-2′-one], the negative-log IC50 (pIC50) in series [1] is 7.00 to 9.00. In addition, in series [2], the inhibition at 10 µM is < 50%.

In the case of `N#Cc1ccc2c(c1)OCC21C(=O)N(Cc2ccc3c(c2)OCCO3)c2ccccc21` (stereo not drawn) [Example 4.111, 1′-(2,3-dihydro-1,4-benzodioxin-6-ylmethyl)-2′-oxo-1′,2′-dihydrospiro[1-benzofuran-3,3′-indole]-6-carbonitrile], the pIC50 in series [1] is 6.00 to 7.00. Besides, in series [2], the inhibition at 10 µM was < 50%.

For `O=C1N(Cc2ncccc2Cl)c2ccccc2C12COc1cc3c(cc12)OCCO3` (stereo not drawn) [Example 4.112, 1-[(3-chloropyridin-2-yl)methyl]-2,3-dihydrospiro[furo[2,3-g][1,4]benzodioxine-8,3′-indol]-2′(1′H)-one], in series [1], the negative-log IC50 (pIC50) is 7.00 to 9.00. Also, the inhibition at 10 µM in series [2] is > 50%.

Regarding `O=C1N(Cc2ncccc2C(F)(F)F)c2cccc(F)c2C12COc1cc3c(cc12)OCCO3` (stereo not drawn) [Example 5.20, 4′-fluoro-1′-{[3-(trifluoromethyl)pyridin-2-yl]methyl}-2,3-dihydrospiro[furo[2,3-g][1,4]benzodioxine-8,3′-indol]-2′(1′H)-one], the negative logarithm of the IC50 (pIC50) in series [1] is 7.00 to 9.00. Further, the inhibition at 10 µM in series [2] was < 50%.

Regarding `O=C1N(Cc2ccccn2)c2ccccc2C12COc1cc3c(c(F)c12)OCCO3` (stereo not drawn) [Example 5.25, 9-fluoro-1′-(pyridin-2-ylmethyl)-2,3-dihydro-spiro[furo[2,3-g][1,4]benzodioxine-8,3′-indol]-2′(1′H)-one], in series [1], the pIC50 is 7.00 to 9.00. For the same compound, the inhibition at 10 µM in series [2] is > 50%.

For `O=C1N(Cc2ncccc2C(F)(F)F)c2ccccc2C12COc1cc3c(c(F)c12)OCCO3` (stereo not drawn) [Example 5.26, 9-fluoro-1′-{[3-(trifluoromethyl)pyridin-2-yl]methyl}-2,3-dihydrospiro[furo[2,3-g][1,4]benzodioxine-8,3′-indol]-2′(1′H)-one], the pIC50 in series [1] was 7.00 to 9.00. In addition, in series [2], the inhibition at 10 µM is < 50%.

Take `O=C1N(Cc2ccc(O)cn2)c2ccccc2C12COc1cc3c(c(F)c12)OCCO3` (stereo not drawn) [Example 5.27, 9-fluoro-1′-[(5-hydroxypyridin-2-yl)methyl]-2,3-dihydrospiro[furo[2,3-g][1,4]benzodioxine-8,3′-indol]-2′(1′H)-one]: in series [1], the pIC50 is 6.00 to 7.00. Further, the inhibition at 10 µM in series [2] is > 50%.

`O=C1N(Cc2ccccn2)c2ccccc2C12COc1cc3c(cc12)OCCC3` (stereo not drawn) [Example 5.28, 1′-(pyridin-2-ylmethyl)-7,8-dihydro-6H-spiro-[furo[2,3-g]chromene-3,3′-indol]-2′(1′H)-one]: in series [1], the pIC50 is 7.00 to 9.00. In addition, the inhibition at 10 µM in series [2] was > 50%.

For the compound `O=C1N(Cc2ncccc2C(F)(F)F)c2ccccc2C12COc1cc3c(cc12)OCCC3` (stereo not drawn) [Example 5.29, 1-{[3-(trifluoromethyl)pyridin-2-yl]methyl}-7,8-dihydro-6H-spiro[furo[2,3-g]chromene-3,3′-indol]-2′(1′H)-one], in series [1], the negative-log IC50 (pIC50) was 6.00 to 7.00. In series [2], the inhibition at 10 µM is < 50%.

On to `O=C1N(Cc2ccccn2)c2ccccc2C12COc1cc3c(cc12)S(=O)(=O)C=C3` (stereo not drawn) [Example 5.31, 1-(pyridin-2-ylmethyl)spiro[indole-3,3′-thieno[2,3-f][1]benzofuran]-2(1′H)-one 5,5′-dioxide], for which the pIC50 in series [1] was 5.00 to 6.00. Besides, the inhibition at 10 µM in series [2] was < 50%.

For `Cc1cc2c(cc1C)C1(CO2)C(=O)N(CC2CCCCO2)c2ccccc21` (stereo not drawn) [Example 6.2, 5,6-dimethyl-1′-(tetrahydro-2H-pyran-2-ylmethyl)spiro[1-benzofuran-3,3′-indol]-2′(1′H)-one], in series [1], the pIC50 was 6.00 to 7.00. Further, in series [2], the inhibition at 10 µM is > 50%.

For `O=C1N(Cc2cccc([N+](=O)[O-])c2)c2ccccc2C12COc1cc3c(cc12)OCCO3` (stereo not drawn) [Example 7.10], the pIC50 in series [1] is 7.00 to 9.00. Besides, the inhibition at 10 µM in series [2] is < 50%.

For `O=C1N(Cc2cncs2)c2ccccc2C12COc1cc3c(cc12)OCCO3` (stereo not drawn) [Example 7.11], the pIC50 in series [1] is 7.00 to 9.00. In series [2], the inhibition at 10 µM was > 50%.

In the case of `O=C1N(Cc2ccc(C(F)(F)F)cn2)c2ccccc2C12COc1cc3c(cc12)OCCO3` (stereo not drawn) [Example 7.12], in series [1], the pIC50 was 7.00 to 9.00. For the same compound, in series [2], the inhibition at 10 µM was > 50%.

As to `O=C1N(Cc2ncccc2C(F)(F)F)c2ccccc2C12COc1cc3c(cc12)OCCO3` (stereo not drawn) [Example 7.13], the pIC50 in series [1] was 7.00 to 9.00. In addition, in series [2], the inhibition at 10 µM is > 50%.

Turning to `O=C1N(Cc2cc(-c3cccnc3)no2)c2ccccc2C12COc1cc3c(cc12)OCCO3` (stereo not drawn) [Example 7.14], in series [1], the pIC50 was 7.00 to 9.00. Moreover, the inhibition at 10 µM in series [2] was > 50%.

Take `CN(C)S(=O)(=O)c1cccc(CN2C(=O)C3(COc4cc5c(cc43)OCCO5)c3ccccc32)c1` (stereo not drawn) [Example 7.16, N,N-dimethyl-3-[(2′-oxo-2,3-dihydrospiro[furo[2,3-g][1,4]benzodioxine-8,3′-indol]-1′-(2′H)-yl)methyl]benzenesulfonamide]: the pIC50 in series [1] is 5.00 to 6.00. The inhibition at 10 µM in series [2] is > 50%.

Regarding `O=C1N(Cc2cccc(S(=O)(=O)N3CCOCC3)c2)c2ccccc2C12COc1cc3c(cc12)OCCO3` (stereo not drawn) [Example 7.17, 1′-[3-(morpholin-4-ylsulfonyl)benzyl]-2,3-dihydrospiro[furo[2,3-g][1,4]benzodioxine-8,3′-indol]-2′(1′H)-one], the negative logarithm of the IC50 (pIC50) in series [1] is 5.00 to 6.00. Besides, in series [2], the inhibition at 10 µM is > 50%.

For the origin of these results see patent US8263606B2 (Xenon Pharmaceuticals Inc., priority 2008, dated 2012).
